From PubChem BioAssay (NCI)
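In this assay, cells in 96-well plates receive the compound at five concentrations for 48 hours. Endpoints are linearly interpolated between the surrounding concentrations. The concentration for full growth arrest is given as TGI.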

Legend:
Assay in all cases: inhibition of tumour cell growth, NCI panel, 48 h
T-47D breast = system: T-47D breast
MOLT-4 leukemia = system: MOLT-4 leukemia
MDA-MB-435 = system: MDA-MB-435
786-0 renal = system: 786-0 renal
U251 CNS = system: U251 CNS
OVCAR-8 ovarian = system: OVCAR-8 ovarian
MDA-MB-231 breast = system: MDA-MB-231 breast
UACC-62 melanoma = system: UACC-62 melanoma
PC-3 prostate = system: PC-3 prostate
LOX IMVI melanoma = system: LOX IMVI melanoma
K-562 leukemia = system: K-562 leukemia
SNB-75 CNS = system: SNB-75 CNS
SF-539 CNS = system: SF-539 CNS
NCI-H522 lung = system: NCI-H522 lung
SK-MEL-28 melanoma = system: SK-MEL-28 melanoma
NCI-H460 lung = system: NCI-H460 lung
DU-145 prostate = system: DU-145 prostate
ACHN renal = system: ACHN renal
RXF 393 renal = system: RXF 393 renal

| Structure (SMILES) | TGI (T-47D breast) [µM] | TGI (MOLT-4 leukemia) [µM] | TGI (MDA-MB-435) [µM] | TGI (786-0 renal) [µM] | TGI (U251 CNS) [µM] | TGI (OVCAR-8 ovarian) [µM] | TGI (MDA-MB-231 breast) [µM] | TGI (UACC-62 melanoma) [µM] | TGI (PC-3 prostate) [µM] | TGI (LOX IMVI melanoma) [µM] | TGI (K-562 leukemia) [µM] | TGI (SNB-75 CNS) [µM] | TGI (SF-539 CNS) [µM] | TGI (NCI-H522 lung) [µM] | TGI (SK-MEL-28 melanoma) [µM] | TGI (NCI-H460 lung) [µM] | TGI (DU-145 prostate) [µM] | TGI (ACHN renal) [µM] | TGI (RXF 393 renal) [µM] |
| --- | --- | --- | --- | --- | --- | --- | --- | --- | --- | --- | --- | --- | --- | --- | --- | --- | --- | --- | --- |
| CC(=O)OCC1OC(N2C(c3ccccc3)=CC(c3ccco3)C(C#N)=C2S)C(OC(C)=O)C(OC(C)=O)C1OC(C)=O (stereo not drawn) | > 67.9 | > 75.4 | > 70.5 | 5.93 | 8.6 | 12.1 | 8.65 | 65 | > 38.6 | > 46.4 | > 100 | 8.9 | 5.35 | > 39.8 | > 75.5 | > 62.2 | > 88.2 | 24.8 | 15.7 |
| O=C(O)C1(Cc2ccccc2)Cc2cc3c(cc2C1)CCC3 | > 100 | > 100 | > 100 | > 100 | > 100 | > 100 | > 100 | > 100 | > 100 | > 100 | > 100 | > 100 | > 100 | > 100 | > 100 | > 100 | > 100 | > 100 | > 100 |
| CC1(C)C2CCC1(C)C(OC(=O)/C=C/C(=O)OC1CC3CCC1(C)C3(C)C)C2 (stereo not drawn) | > 100 | 45.9 | > 100 | > 100 | > 100 | > 100 | > 100 | > 100 | > 100 | 49.9 | > 100 | 86.6 | > 100 | > 100 | 40.2 | > 100 | > 100 | > 100 | > 100 |
| C/C=C(/C)C(=O)O[C@H]1[C@H]2[C@@H]([C@@H](OC(C)=O)[C@H](C)C(=O)[C@@]34C[C@@H](C)C(=O)[C@]3(/C=C(\C)[C@H]1OC(C)=O)O4)C2(C)C | 5.74 | 6.46 | 6.6 | 5.5 | > 20 | 6.54 | 9.32 | 6.99 | 15.8 | 6.27 | 8.43 | > 20 | 5.83 | 6.29 |  | > 20 | > 20 | 7.05 | 6.75 |
| O=C1OC(C2Cc3ccc4c(c3C2=O)CCC4)c2ccccc21 (stereo not drawn) | > 100 | > 100 | > 100 | > 100 | > 100 | > 100 | > 100 | > 100 | > 100 | > 100 | > 100 | > 100 | > 100 | > 100 | > 100 | > 100 | > 100 | > 100 | > 100 |
| CN(C)Cc1cc(C(=O)/C=C/c2ccc(Cl)c(Cl)c2)cc(CN(C)C)c1O | 19.9 | 10.5 | 13.2 | 3.09 | 13.6 | 4.9 | 14.3 |  | 5.32 | 2 | 4.74 |  | 8.93 | 3.31 | 10.3 | 7.9 | 15.9 | 11.6 | 11.1 |
| COC(=O)c1cc(=O)n(-c2ccc3nn(C)nc3c2)cc1C(=O)OC | > 100 | > 100 | > 100 | > 100 | > 100 | > 100 | > 100 | > 100 | > 100 |  | > 100 | > 100 | > 100 | > 100 | > 100 | > 100 | > 100 | > 100 | > 100 |
| CCC/C(Cl)=N/OC(=O)Nc1cc(C(F)(F)F)ccc1OC | 15.6 | 6.01 | 26.3 | 18.6 | 31.6 | 29.8 | 27 | 28.8 | 29.7 | 16.2 |  | 28.5 | 28.6 | 2.99 | 28.3 | 36.5 | 30 | 26.1 | 18.3 |
| CC(=O)OCC1OC(c2c(OC(C)=O)cc(C)c3c(=O)cc(/C(C(C)=O)=C(\C)O)oc23)C(OC(C)=O)C(OC(C)=O)C1OC(C)=O (stereo not drawn) | > 100 | > 100 | > 100 | > 100 | > 100 | > 100 | > 100 | > 100 | > 100 |  | > 100 | > 100 | > 100 | > 100 | > 100 | > 100 | > 100 | > 100 | > 100 |
| O=[N+]([O-])c1cccc(-c2ncc3c(n2)-c2ccccc2C3)c1 | > 100 | > 100 | > 100 | > 100 | > 100 | > 100 | > 100 | > 100 | > 100 |  | > 100 | > 100 | > 100 | > 100 | > 100 | > 100 | > 100 | > 100 | > 100 |
| CC(=O)NCCCCN(CCCNC(C)=O)C(=O)CNS(=O)(=O)c1cccc2c(N(C)C)cccc12 | > 100 | > 100 | > 100 | > 100 | > 100 |  | > 100 | > 100 | > 100 | > 100 | > 100 |  | > 100 | > 100 | > 100 | > 100 | > 100 | > 100 | > 100 |
| CCOC(=O)CC1(Cc2ccc(OCc3ccccc3)cc2)C(=O)OC(c2ccccc2)N1C(=O)c1ccccc1 (stereo not drawn) | > 100 | > 100 | > 100 | > 100 | > 100 | > 100 | > 100 | > 100 | > 100 | > 100 | > 100 |  | > 100 | > 100 | > 100 | 62.1 | > 100 | > 100 | > 100 |
